The values below come from patent publication EP0230023B1, “Pharmaceutical compositions for the enhancement of wound healing” (MARION MERRELL DOW INC., priority 1985, dated 1987).

The subject of one assay is rabbit corneas. As to the kind of experiment: Rabbit cornea assay for angiogenesis. Format: in vivo. The settings on record: grade on scale 0-4+ in rabbit cornea; potassium salts. How it is done: This may offer an explanation for the dense vascular bed that characterized the granulation tissue in the in-vivo experiments. Sucrose octasulate at concentrations of 0.1 to 100 µg/ml was encapsulated in Hydron and implanted in rabbit corneas. The method used was that described in Surgery 96:48-54, 1984. The […] solution (sucrose octasulfate or PBS) was mixed with an equal volume of Hydron and allowed to polymerize under reduced pressure. […] Eyes were evaluated at days 1 through 14 post-implantation for gross inflammation and, as described by Hunt, et al, in Surgery 96:48-54, 1984, for angiogenesis. Corneal neovascularization was graded on a scale of 0-4+ (integers only being assigned). Zero denotes a normal eye with no ingrowth on limbal vessels into the corneal stroma; 1+, up to 1 mm of capillary ingrowth in a localized arc adjacent to the injection site; 2+, […] ingrowth; 3+, 2-3 mm ingrowth; and 4+, 3 mm or greater ingrowth in a wide arc along the limbal edge toward the injection site. […] To ascertain that the observed angiogenesis was not secondary to an inflammatory process some eyes with a positive response were removed and stained with H&E and a nonspecific esterase stain as early as two days after implantation.

The subject of another assay is fibroblasts. The assay can be described thus: Cell migration assay (Boyden chamber). Format: cell-based. Set-up: Chemokinesis: scale not given here. The settings on record: score, Boyden chamber, scale not defined; potassium salts. The procedure:
Stimulation of directed movement of fibroblasts was assayed as described by Banda M.J., Knighton D.R., Hunt T.K., Werb A., Isolation of a nonmitogenic angiogenesis factor from wound fluid, Proc. Natl. Acad. Sci. 79:7773-7777, 1982. Briefly, solutions of sucrose octasulfate in PBS in concentrations resulting in final concentrations ranging from 10 -² to 10 -⁷ g/ml diluted to a final volume of 300 µℓ in DMEM supplemented with 10 percent rabbit platelet-poor plasma serum were placed in the bottom of Boyden blind-well chambers. Polylysine-coated, 5 µ -pore diameter, polycarbonate filters (Nucleopore) were placed over the test solution and 1.75-3.0 x 10⁶ fibroblasts suspended in DMEM added to the top compartment. The chambers were incubated for two and a half hours at 37 °C,
At the end of incubation of the top filter was fixed, stained and evaluated by counting the number of cells that had migrated to the bottom side of the filter. For each experiment five random fields per filter and at least 15 filters per each concentration of sucrose octasulfate were conducted. […]

Another assay concerns granulation tissue. As to the kind of experiment: Subcutaneous Ivalon sponge implantation, histological analysis of granulation tissue formation. Format: in vivo, Sprague-Dawley rats. The settings on record: for Sponge: score on the 0-4 scale, tested in a similar manner to collagen/sucrose octasulfate, potassium salts. How it is done: By means of subcutaneous implantation of Ivalon sponges the phase of granulation tissue formation in the repair process can be evaluated. Following a vigorous cleanup procedure the sponge material evokes only minimal inflammatory response. Sterile sponges prepared as set forth in Example 12 were injected with a 50 µl suspension of collagen/sucrose octasulfate suspension prepared as in Example 12. […] The sponges were surgically implanted into 350-500 g, male Sprague-Dawley rats. Before the implantation procedure three rats were anesthetized and their dorsal surfaces shaved and wiped with Predodyne (West Chemical Products, Lynbrook, N.Y.). Six 6 mm incisions were cut in groups of two (one on each side of the vertebral column rostrally, centrally and caudally), spaced equi-distant from each other between the pectoral and pelvic girdles on the dorsal surface. At each incision a pocket was made between the panniculus carnosus and the dermis and two sponges inserted into it, one rostrally and the other caudally; a total of 12 sponges were thus implanted in each animal. The position of each test preparation was alternated between the rostral, central and caudal positions to control the variation due to anatomical location. The incisions were closed with 11-mm Michel wound clips (Propper, Long Island City, N.Y.). Seven days following implantation the animals were sacrificed and the sponges surgically removed with their adhered connective tissue capsules. Controls, sponges injected with either PBS or collagen only were treated in a similar manner. In all, approximately 120 sponges per group were used in the study and randomly selected for biochemical and histologic analysis. The sponges were fixed in formalin and embedded in either plastic or Paraplast following dehydration. Sections were stained with hemotocylin and eosin, trichrome, silver or PAS. […] Mesenchymal cell infiltration was also scored on a predetermined scale from 0-4. […] Although the whole sponge area was used for analysis we noted that the most striking differences between the various treatments were evident in the center of the sponge. Therefore, the histologic appearance of the central zone was selected for presentation.

For `O=S(=O)([O-])OC[C@H]1O[C@H](O[C@H]2O[C@H](COS(=O)(=O)[O-])[C@@H](OS(=O)(=O)[O-])[C@H](OS(=O)(=O)[O-])[C@H]2OS(=O)(=O)[O-])[C@H](OS(=O)(=O)[O-])[C@@H](OS(=O)(=O)[O-])[C@@H]1OS(=O)(=O)[O-].[K+].[K+].[K+].[K+].[K+].[K+].[K+].[K+]` [Trehalose Octasulfate, potassium trehalose octasulfate], the Angiogenesis in the assay on rabbit corneas was determined as 3.0. Also, the Chemokinesis in the assay on fibroblasts is on record as 2.0. Besides, in the assay with granulation tissue, the Sponge was 3.0.
In the case of `O=S(=O)([O-])OC[C@H]1O[C@@H](O[C@H]2[C@H](OS(=O)(=O)[O-])[C@@H](OS(=O)(=O)[O-])[C@H](OS(=O)(=O)[O-])O[C@@H]2COS(=O)(=O)[O-])[C@H](OS(=O)(=O)[O-])[C@@H](OS(=O)(=O)[O-])[C@H]1OS(=O)(=O)[O-].[K+].[K+].[K+].[K+].[K+].[K+].[K+].[K+]` [Beta-Lactose Octasulfate, potassium β -lactose octasulfate], the Angiogenesis in the assay on rabbit corneas is 3.0. Besides, in the assay with fibroblasts, the Chemokinesis turned out to be 3.0. In the assay with granulation tissue, the Sponge is on record as 3.0.
On to “potassium stachyose persulfate [Stachyose Tetradecasulfate]”, for which the Angiogenesis in the assay with rabbit corneas is 2.5. Besides, the Chemokinesis in the assay with fibroblasts was found to be 2.0. The Sponge in the assay on granulation tissue came out at 2.5.
As for `O=C[C@@H](OS(=O)(=O)[O-])[C@@H](OS(=O)(=O)[O-])[C@H](OS(=O)(=O)[O-])[C@@H](COS(=O)(=O)[O-])OS(=O)(=O)[O-].[K+].[K+].[K+].[K+].[K+]` [Mannose Pentasulfate, potassium mannose pentasulfate], the Angiogenesis in the assay with rabbit corneas is listed as 3.0. Moreover, the Chemokinesis with fibroblasts amounted to 4.0. For the same compound, the Sponge in the assay with granulation tissue amounted to 3.0.
With `O=C[C@H](O)[C@@H](O)[C@H](O)[C@H](O)COS(=O)(=O)[O-].[K+]` [Glucose-6-Sulfate, potassium D-glucose-6-sulfate, reference compound], the Angiogenesis in the assay with rabbit corneas is listed as 1. Also, the Chemokinesis in the assay with fibroblasts stood at 1. The Sponge with granulation tissue stood at 1.
Turning to potassium sucrose trisulfate, the Angiogenesis with rabbit corneas stood at 2.0. Moreover, in the assay on fibroblasts, the Chemokinesis is recorded as 3.0. The Sponge in the assay with granulation tissue stood at 2.5.
`O=C[C@H](OS(=O)(=O)[O-])[C@@H](OS(=O)(=O)[O-])[C@H](OS(=O)(=O)[O-])[C@@H](COS(=O)(=O)[O-])OS(=O)(=O)[O-].[K+].[K+].[K+].[K+].[K+]` [Glucose Pentasulfate, potassium glucose pentasulfate]: the Angiogenesis in the assay on rabbit corneas came to 2.0. For the same compound, in the assay with fibroblasts, the Chemokinesis worked out at 3.0. For the same compound, the Sponge in the assay with granulation tissue is on record as 2.5.
The like results for `O=S(=O)(O)OC[C@H]1O[C@@H](OS(=O)(=O)O)[C@H](OS(=O)(=O)O)[C@@H](OS(=O)(=O)O)[C@@H]1O[C@H]1O[C@H](COS(=O)(=O)O)[C@@H](OS(=O)(=O)O)[C@H](OS(=O)(=O)O)[C@H]1OS(=O)(=O)O` [Maltose Octasulfate, potassium maltose octasulfate] were, in that order, 3.0, 3.0 and 3.0.
In the same order, the values of “potassium melezitose persulfate [Melezitose Undecasulfate]” are 1, 1 and 1.
For sucralfate [reference compound], the “histologic response in sponge” value in the assay on granulation tissue (similar tests with sucralfate) was “strong inflammatory response with no neovascularization or fibroblast migration”.
